Assay results reported in patent US20240085425A1, “BIOMARKER AND APPLICATION THEREOF” (ADLAI NORTYE BIOPHARMA CO., LTD., priority 2022, published 2024).
Residues, ends and D or L forms follow the SMILES beside them. *: point of attachment. Cbz = O=C(OCc1ccccc1)*

Columns and labels:
Type in all cases: cell-based
[1] = system: non-phosphorylated β-catenin; assay: Western blot of non-phosphorylated β-catenin content in Colo205 cells
Description: (§1) The Wnt signaling pathway is a key pathway for abnormal tumor growth. In colon cancer, liver cancer, pancreatic cancer and other cancers, a large number of patients have abnormal activation of the Wnt signaling pathway. The Wnt signaling pathway depends on the fine balance of β-catenin protein level. When Wnt signaling is not activated, β-catenin is phosphorylated by CK1 and APC/Axin/GSK-3β complexes, and the β-catenin protein is kept at a low level through ubiquitin-dependent proteasome degradation. When the Wnt signaling pathway is activated, β-catenin maintains a stable state of non-phosphorylation, and non-phosphorylated β-catenin can be transported into the nucleus through Rac1 and other factors, and plays a transcriptional regulatory role by binding to LEF/TCF transcription factors in the nucleus, activates downstream target genes such as C-myc and Cyclin D1, and promotes cell proliferation. Therefore, abnormal activation of the Wnt signaling pathway in tumor cells will lead to abnormal proliferation of tumors. In order to explore the inhibitory mechanism of the compound on the proliferation of tumor cell lines, the compound AN10250399, AN10250421 or AN10250484 was used to treat sensitive cells Colo205, DU4475 and HepG2, and Western blot was used to detect the content of non-phosphorylated β-catenin in the Wnt pathway to clarify the effect of the compound on content of the non-phosphorylated β-catenin.
Add 500 μL of the compound with the highest concentration shown in FIG. 1 to each well of the 6-well cell culture plate, and make a 10-fold gradient dilution of the compound concentration. Then 500 μL of 10^6 Colo205, DU4475 and HepG2 or 500 μL of medium were inoculated into each well, and corresponding solvent treatment was performed simultaneously as negative control wells. The cells were placed in a 5% CO2 cell incubator, cultured overnight at 37° C. The culture medium was removed, washed once with PBS, 200 μL of RIPA buffer containing protease inhibitors was added to each well, and the protein lysate was collected after lysing on ice for 20 min. Add an appropriate amount of concentrated SDS-PAGE protein loading buffer to the collected protein lysate samples, and heat at 100° C. or in a boiling water bath for 3-5 minutes to fully denature the protein. Load the protein sample directly to the SDS-PAGE gel for electrophoresis separation, transfer the protein on the SDS-PAGE gel to the PVDF membrane; after the transfer was completed, the protein was blocked by Western blocking solution, then Rabbit anti-β-catenin non-phospho S37/After T41 (ab278503) was added and the protein was incubated at room temperature for one hour and washed, the content of non-phosphorylated β-catenin was detected by incubation with Goat Anti-Rabbit IgG H&L (HRP) (ab6721). As a control, glyceraldehyde-3-phosphate dehydrogenase (GAPDH) was used as an internal standard protein

[2] = system: non-phosphorylated β-catenin; assay: Western blot of non-phosphorylated β-catenin content in HepG2 cells; details: overnight, read-out: Non-phosphorylated β-catenin content inhibition IC50
Description: as §1, with “In order to explore the inhibitory mechanism of the compound on the proliferation of tumor cell lines, the compound AN10250399, AN10250421 or AN10250484 was used to treat sensitive cells Colo205, DU4475 and HepG2, and Western blot was used to detect the content of non-phosphorylated β-catenin in the Wnt pathway to clarify the effect of the compound on content of the non-phosphorylated β-catenin.” left out
(§2) Add 500 μL of the compound with the highest concentration shown in FIG. 1 to each well of the 6-well cell culture plate, and make a 10-fold gradient dilution of the compound concentration. […] Load the protein sample directly to the SDS-PAGE gel for electrophoresis separation, transfer the protein on the SDS-PAGE gel to the PVDF membrane; after the transfer was completed, the protein was blocked by Western blocking solution, then Rabbit anti-β-catenin non-phospho S37/After T41 (ab278503) was added and the protein was incubated at room temperature for one hour and washed, the content of non-phosphorylated β-catenin was detected by incubation with Goat Anti-Rabbit IgG H&L (HRP) (ab6721). […]

[3] = system: non-phosphorylated β-catenin; assay: Western blot of non-phosphorylated β-catenin content in DU4475 cells; details: overnight, read-out: Non-phosphorylated β-catenin content inhibition IC50
Description: as §1, with “In order to explore the inhibitory mechanism of the compound on the proliferation of tumor cell lines, the compound AN10250399, AN10250421 or AN10250484 was used to treat sensitive cells Colo205, DU4475 and HepG2, and Western blot was used to detect the content of non-phosphorylated β-catenin in the Wnt pathway to clarify the effect of the compound on content of the non-phosphorylated β-catenin.” left out
as §2

[4] = system: non-phosphorylated β-catenin; assay: Non-phosphorylated β-catenin content in Colo205-LUC-TCF/LEF cells, compound plus MG132; details: 200 nM compound plus 2 μM MG132, 4 hours, FIG. 2
Description: Add 500 ul medium containing 200 nM compound plus 2 μM MG132 or 200 nM compound plus control solvent to each well of a 6-well cell culture plate, then add 500 ul containing 10^6 Colo205-LUC-TCF/LEF cells respectively, and incubate for 4 hours Finally, the protein was collected to detect the content of non-phosphorylated β-catenin.

Row | SMILES | Effect on content of non-phosphorylated β-catenin (active β-catenin), in words ([1]; FIG. 1) | IC50 ([1]; overnight, Western blot, read-out: Non-phosphorylated β-catenin content inhibition IC50) [µM] | IC50 [2] [µM] | IC50 [3] [µM] | Effect of MG132 on the reduction of non-phosphorylated β-catenin content caused by AN10250484 [4]
1 | Cc1nc(NCc2ccc(Oc3cnc(C(F)(F)F)nc3)nc2)nc2c1NC(=O)[C@H](C)N2C [AN10250421] | decrease the content of non-phosphorylated β-catenin | 0.01 | 0.0516 | 0.0022 | –
2 | CC(C)C[C@@H](C=O)NC(=O)[C@H](CC(C)C)NC(=O)[C@H](CC(C)C)NC(=O)OCc1ccccc1 [MG132] (Cbz-Leu-Leu-Leu-aldehyde) | – | – | – | – | reverses the reduction of the content of non-phosphorylated β-catenin
